Literature values, collected in US20090143313A1 (priority 2004, published 2009).

Key:
[1] = system: tuberculosis; conditions: human, in vivo
[2] = system: spleen lymphocytes
[3] = system: 5-FU-immune-suppressed animals; conditions: in vivo
[4] = system: immunization with sheep red blood cells; conditions: in vivo
[5] = system: bone marrow cells

SMILES: N[C@H](CCC(=O)N[C@@H](Cc1c[nH]c2ccccc12)C(=O)O)C(=O)O [SCV-07, γ-D-glutamyl-L-tryptophan]
- Cavity healing and symptoms of tuberculosis [1]: positive effect
- Incidence of mycobacteria-negative sputum cultures [1]: increased
- Con-A-induced interleukin-2 (IL-2) production and IL-2 receptor expression by spleen lymphocytes [2]: increases
- Immunostimulatory effect [3]: strong immunostimulatory effect
- Immunostimulatory effect [4]: strong immunostimulatory effect
- Expression of Thy-1.2 on bone marrow cells [5]: stimulates
